Results on five substances are retold here after patent US9833497B2, “Human originated EGF domain proteins and use of the same” (CHENGDU SOURCEBIO LIMITED-LIABILITY COMPANY, priority 2013, dated 2017).

Format in all cases: cell-based
For one assay, the system named is Citrobacter diversus. In words: MIC against Gram-negative bacteria: Citrobacter diversus. As to conditions: 5×10^5 CFU/mL. Put shortly: (§1)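 Purified recombinant human EGF domain proteins are tested by broth dilution in LB against a 5×10^5 CFU/mL inoculum, with two-fold serial dilutions run in triplicate. Plates are incubated at 37° C with shaking, and the MIC is read as the lowest protein concentration without growth.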

In the next assay the test system is Pseudomonas aeruginosa. In words: MIC against Gram-negative bacteria: Pseudomonas aeruginosa. Particulars: 5×10^5 CFU/mL. Put shortly: as §1
A further assay relates to Klebsiella pneumonia. The assay is described as follows: MIC against Gram-negative bacteria: Klebsiella pneumonia. Particulars: 5×10^5 CFU/mL. Put shortly: as §1
In another assay the test system is Proteus vulgaris. The assay is described as follows: MIC against Gram-negative bacteria: Proteus vulgaris. Particulars: 5×10^5 CFU/mL. A digest of the protocol:
as §1

A further assay concerns Proteus mirabilis. The assay is described as follows: MIC against Gram-negative bacteria: Proteus mirabilis. Particulars: 5×10^5 CFU/mL. Put shortly:
as §1

The subject of the next assay is Serratia marcescens. In words: MIC against Gram-negative bacteria: Serratia marcescens. As to conditions: 5×10^5 CFU/mL. A digest of the protocol: as §1
A further assay concerns Moraxella catarrhalis. In words: MIC against Gram-negative bacteria: Moraxella catarrhalis. Particulars: 5×10^5 CFU/mL. A digest of the protocol: as §1
The next assay concerns E. coli DH5α. In words: Antibacterial activity: MIC and growth curve against E. coli DH5α in 96-well plate. Particulars: minimal inhibitory concentration against E. coli DH5α; 96-well plate, 5×10^5 CFU/mL, 37° C., judged after 8 h. Put shortly: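 Log-phase bacteria (OD600 ~0.5) resuspended in LB at 5×10^5 CFU/mL, exposed to recombinant protein at 50, 25, 12.5 μg/mL final in triplicate, 37 °C shaking at 175 rpm. OD600 read every 30 min; MIC is lowest concentration showing no growth.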

In the next assay the test system is Aeromonas hydrophila. In words: MIC against Gram-negative bacteria: Aeromonas hydrophila. As to conditions: 5×10^5 CFU/mL. Put shortly: as §1
Another assay concerns E. coli BL21. In words: MIC against Gram-negative bacteria: E. coli BL21. As to conditions: 5×10^5 CFU/mL. A digest of the protocol:
as §1

A further assay has as its system Enterobacter cloacae. The assay is described as follows: MIC against Gram-negative bacteria: Enterobacter cloacae. Particulars: 5×10^5 CFU/mL. Put shortly:
as §1

The mark [1] stands for this setting: Citrobacter diversus, 96-well plate, 37° C., 10 h.
The mark [2] stands for this setting: Pseudomonas aeruginosa, 96-well plate, 37° C., 10 h.
Where [3] appears, read: Klebsiella pneumonia, 96-well plate, 37° C., 10 h.
[4] abbreviates: Proteus vulgaris, 96-well plate, 37° C., 10 h.
Setting [5] is: Proteus mirabilis, 96-well plate, 37° C., 10 h.
The mark [6] stands for this setting: Serratia marcescens, 96-well plate, 37° C., 10 h.
[7] abbreviates: Moraxella catarrhalis, 96-well plate, 37° C., 10 h.
Setting [8] is: Aeromonas hydrophila, 96-well plate, 37° C., 10 h.
The mark [9] stands for this setting: E. coli BL21, 96-well plate, 37° C., 10 h.
The mark [10] stands for this setting: Enterobacter cloacae, 96-well plate, 37° C., 10 h.
Setting [11] is: 10 h cultivation at 37° C., two-fold serial dilution.

Take “PRT1227 (NLKLCDASNHCDRHGVCNNFNHCHCEKGYNPPYCQ; listed as Homo sapiens)”: the “MIC against C. diversus” value in the assay on Citrobacter diversus (setting [1]) amounted to 12.5 µg/mL. In addition, the “MIC against P. aeruginosa” value against Pseudomonas aeruginosa (setting [2]) was 12.5 µg/mL. Also, the “MIC against K. pneumonia” value against Klebsiella pneumonia (setting [3]) was 25 µg/mL. In the assay with Proteus vulgaris (setting [4]), the “MIC against P. vulgaris” value came to 25 µg/mL. The “MIC against P. mirabilis” value in the assay on Proteus mirabilis (setting [5]) came to 12.5 µg/mL. Also, the “MIC against S. marcescens” value against Serratia marcescens (setting [6]) was 12.5 µg/mL. Further, in the assay on Moraxella catarrhalis (setting [7]), the “MIC against M. catarrhalis” value worked out at 12.5 µg/mL. Also, the MIC (commonly the lowest concentration that inhibits growth of the organism) in the assay with E. coli DH5α was 50 µg/mL. Further, in the assay on Aeromonas hydrophila (setting [8]), the “MIC against A. hydrophila” value amounted to 12.5 µg/mL. The “MIC against E. coli BL21” value against E. coli BL21 (setting [9]) worked out at 25 µg/mL. Besides, the “MIC against E. cloacae” value against Enterobacter cloacae (setting [10]) came out at 12.5 µg/mL.
For “PRT621 (CQCNNNVDPSASGNCDRLTGRCLKCIHNTAGIYCDQCKAGYFGDPLAPNPADKCRA; listed as Homo sapiens)”, in the assay on Citrobacter diversus (96-well plate, 37° C., 10 h), the “MIC C. diversus” value came out at 50 µg/mL. In addition, the “MIC P. aeruginosa” value in the assay on Pseudomonas aeruginosa (96-well plate, 37° C., 10 h) came to 50 µg/mL. For the same substance, the “MIC K. pneumonia” value with Klebsiella pneumonia (96-well plate, 37° C., 10 h) came out at 25 µg/mL. In addition, the “MIC P. vulgaris” value in the assay with Proteus vulgaris (96-well plate, 37° C., 10 h) is 25 µg/mL. Besides, the “MIC P. mirabilis” value against Proteus mirabilis (96-well plate, 37° C., 10 h) is 50 µg/mL. The “MIC S. marcescens” value in the assay on Serratia marcescens (96-well plate, 37° C., 10 h) stood at 50 µg/mL. Besides, in the assay on Moraxella catarrhalis (96-well plate, 37° C., 10 h), the “MIC M. catarrhalis” value was 25 µg/mL. Further, in the assay with E. coli DH5α, the MIC was 50 µg/mL. Further, in the assay with Aeromonas hydrophila (96-well plate, 37° C., 10 h), the “MIC A. hydrophila” value turned out to be 25 µg/mL. Also, the “MIC E. coli BL21” value in the assay with E. coli BL21 (96-well plate, 37° C., 10 h) is 25 µg/mL. The “MIC E. cloacae” value in the assay with Enterobacter cloacae (96-well plate, 37° C., 10 h) worked out at 50 µg/mL.
“PRT1091 (DVNECSSNPCQNGGTCENLPGNYTCHCPFDNLSRTFYGGRDCS; listed as Homo sapiens)”: in the assay on Citrobacter diversus (setting [11]), the “MIC C. diversus” value was determined as 12.5 µg/mL. In addition, the “MIC P. aeruginosa” value against Pseudomonas aeruginosa (setting [11]) stood at 12.5 µg/mL. Further, the “MIC K. pneumonia” value against Klebsiella pneumonia (setting [11]) stood at 25 µg/mL. Also, in the assay with Proteus vulgaris (setting [11]), the “MIC P. vulgaris” value was found to be 25 µg/mL. Besides, the “MIC P. mirabilis” value in the assay on Proteus mirabilis (setting [11]) came to 50 µg/mL. Moreover, in the assay on Serratia marcescens (setting [11]), the “MIC S. marcescens” value came to 12.5 µg/mL. The “MIC M. catarrhalis” value in the assay on Moraxella catarrhalis (setting [11]) came out at 25 µg/mL. In addition, the MIC in the assay on E. coli DH5α worked out at 12.5 µg/mL. In addition, the “MIC A. hydrophila” value against Aeromonas hydrophila (setting [11]) was 25 µg/mL. The “MIC E. coli BL21” value against E. coli BL21 (setting [11]) worked out at 50 µg/mL. Moreover, the “MIC E. cloacae” value against Enterobacter cloacae (setting [11]) was found to be 50 µg/mL.
For the substance “PRT44 (LYAQVSQSKPCERTGSCFSGRCVNSTCLCDPGWVGDQCQ; listed as Homo sapiens)”, the “MIC (μg/mL) C. diversus” value against Citrobacter diversus (setting [1]) was found to be 12.5 µg/mL. In addition, in the assay with Pseudomonas aeruginosa (setting [2]), the “MIC (μg/mL) P. aeruginosa” value was 25 µg/mL. The “MIC (μg/mL) K. pneumonia” value in the assay on Klebsiella pneumonia (setting [3]) turned out to be 12.5 µg/mL. In the assay on Proteus vulgaris (setting [4]), the “MIC (μg/mL) P. vulgaris” value stood at 25 µg/mL. Also, the “MIC (μg/mL) P. mirabilis” value in the assay with Proteus mirabilis (setting [5]) worked out at 50 µg/mL. In the assay with Serratia marcescens (setting [6]), the “MIC (μg/mL) S. marcescens” value stood at 12.5 µg/mL. In the assay with Moraxella catarrhalis (setting [7]), the “MIC (μg/mL) M. catarrhalis” value was determined as 25 µg/mL. This substance also registered an MIC against E. coli DH5α of 12.5 µg/mL. For the same substance, in the assay with Aeromonas hydrophila (setting [8]), the “MIC (μg/mL) A. hydrophila” value was 25 µg/mL. For the same substance, the “MIC (μg/mL) E. coli BL21” value against E. coli BL21 (setting [9]) was determined as 12.5 µg/mL. Moreover, the “MIC (μg/mL) E. cloacae” value with Enterobacter cloacae (setting [10]) stood at 12.5 µg/mL.
In the case of “PRT1236 (IGDGCIDMCSGHGRCIQGNCVCDEQWGGLYCD; listed as Homo sapiens)”, in the assay on Citrobacter diversus (setting [1]), the “MIC against C. diversus” value was 12.5 µg/mL. For the same substance, the “MIC against P. aeruginosa” value with Pseudomonas aeruginosa (setting [2]) is 12.5 µg/mL. Further, in the assay on Klebsiella pneumonia (setting [3]), the “MIC against K. pneumonia” value turned out to be 50 µg/mL. Further, the “MIC against P. vulgaris” value in the assay on Proteus vulgaris (setting [4]) was determined as 12.5 µg/mL. In addition, the “MIC against P. mirabilis” value in the assay on Proteus mirabilis (setting [5]) is 25 µg/mL. Besides, in the assay with Serratia marcescens (setting [6]), the “MIC against S. marcescens” value stood at 25 µg/mL. Moreover, the “MIC against M. catarrhalis” value in the assay with Moraxella catarrhalis (setting [7]) stood at 12.5 µg/mL. In addition, in the assay with E. coli DH5α, the MIC was 50 µg/mL. The “MIC against A. hydrophila” value in the assay on Aeromonas hydrophila (setting [8]) came to 50 µg/mL. The “MIC against E. coli BL21” value against E. coli BL21 (setting [9]) was 25 µg/mL. The “MIC against E. cloacae” value with Enterobacter cloacae (setting [10]) amounted to 12.5 µg/mL.
